# According to publication PMC6934184, “Selective DNA-PKcs inhibition extends the therapeutic index of localized radiotherapy and chemotherapy” (The Journal of Clinical Investigation, 2019):
# Target: T1, EGFR (ErbB1) d746-750 (Homo sapiens, UniProt P00533, DEL746-750)
# T1 construct: purchased Thermo Fisher Scientific (Life Technologies) SelectScreen
# Test: SelectScreen LanthaScreen
# Format: binding
# Settings: 1 µM
# Summary of the method: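 Percent values come from Thermo SelectScreen profiling of NU5455, combining activity and binding assays. CSF1R was run in Z'LYTE format at Km app ATP, and CAMK1 in Adapta format with ATP listed at 10.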
# T1 sequence (P00533 with tags, fused parts or gaps DEL746-750 limits assumed): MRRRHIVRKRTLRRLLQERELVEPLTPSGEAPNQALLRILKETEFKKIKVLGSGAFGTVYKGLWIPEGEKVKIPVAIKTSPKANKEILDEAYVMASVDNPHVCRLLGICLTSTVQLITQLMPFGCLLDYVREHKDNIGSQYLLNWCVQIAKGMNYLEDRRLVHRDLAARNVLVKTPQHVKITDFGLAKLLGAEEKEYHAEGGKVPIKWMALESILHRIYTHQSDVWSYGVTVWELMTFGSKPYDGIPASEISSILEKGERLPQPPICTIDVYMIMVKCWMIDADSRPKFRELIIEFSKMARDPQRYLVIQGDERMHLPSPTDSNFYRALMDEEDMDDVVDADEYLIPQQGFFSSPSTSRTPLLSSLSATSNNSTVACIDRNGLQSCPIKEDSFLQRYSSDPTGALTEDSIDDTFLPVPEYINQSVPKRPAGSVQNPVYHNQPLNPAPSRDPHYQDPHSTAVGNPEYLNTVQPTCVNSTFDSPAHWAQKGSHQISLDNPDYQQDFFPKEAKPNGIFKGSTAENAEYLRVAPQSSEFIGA
compound,measurement,value
CN(C(=O)CN1CCOCC1)c1ccc2sc3c(-c4cccc5c(=O)cc(N6CC7CCC(C6)O7)oc45)cccc3c2c1 [NU5455],% displacement,5.8%
